For experiment [1], the system named is M. tuberculosis inside the host macrophage. The experiment can be described thus: QIM: Quantification of Intracellular Mycobacteria (intracellular growth assay, phenotypic cell-based). Particulars: Mycobacterium tuberculosis; MIC, 80% bacterial growth inhibition; intracellular growth; read-out: QIM. The procedure, abridged:
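Dose-response testing of intracellular mycobacterial replication in infected macrophages, a cell-based screening format; MIC is defined as the lowest concentration achieving 80% inhibition of bacterial growth.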

For experiment [2], the system named is in vitro grown Mycobacteria (M. tuberculosis). The experiment can be described thus: QUM: Quantification of in vitro grown Mycobacteria (in vitro growth fluorescence assay). The format is cell-based. The following applies: Mycobacterium tuberculosis; MIC, 80% bacterial growth inhibition; in vitro growth; read-out: QUM. The procedure, abridged: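 Mycobacterium tuberculosis grown in vitro was quantified by fluorescence across compound dose responses. MIC is defined as the minimum concentration producing 80% growth inhibition.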

Structures are written as SMILES. ≈ marks a conversion by molar mass, not a printed value. Bounds are passed on as bounds.

On to `Cc1nc2c(C#N)cccn2c1C(=O)NCc1ccccc1` [Compound 42, N-Benzyl-8-cyano-2-methylimidazo[1,2-a]pyridine-3-carboxamide], for which the MIC in experiment [1] and in experiment [2] was > 20 µM throughout.
Turning to `CCc1nc2ccccn2c1C(=O)NCc1ccc(OC(F)(F)F)cc1` [Compound 57, 2-Ethyl-N-(4-(trifluoromethoxy)benzyl)imidazo[1,2-a]pyridine-3-carboxamide], the MIC in experiment [1] and in experiment [2] was < 1 µM in each case.
As to `CCc1nc2cc(Cl)ccn2c1C(=O)NCc1ccc(N2CCC(Oc3ccc(C(F)(F)F)cc3)CC2)cc1` [Compound 165, 7-Chloro-2-ethyl-N-(4-(4-(4-(trifluoromethyl)phenoxy)piperidin-1-yl)benzyl) imidazo[1,2-a]pyridine-3-carboxamide], the MIC in experiment [1] and in experiment [2] was < 1 µM throughout.
Turning to `CCc1nc2cc(Cl)ccn2c1C(=O)NCc1ccc(-c2cccc(C#N)c2)cc1` [Compound 128, 7-Chloro-N-((3′-cyanobiphenyl-4-yl)methyl)-2-ethylimidazo[1,2-a]pyridine-3-carboxamide], the values for the MIC in experiment [1] and in experiment [2] were < 1 µM and > 20 µM, respectively.
Turning to `CCc1nc2cc(Cl)ccn2c1C(=O)NCc1ccc(N2CCCCC2)cc1` [Compound 90, 7-Chloro-2-ethyl-N-(4-(piperidin-1-yl)benzyl)imidazo[1,2-a]pyridine-3-carboxamide], the MIC in experiment [1] and in experiment [2] was < 1 µM in each case.
`CCc1nc2cc(OC)ccn2c1C(=O)NCc1ccc(OC(F)(F)F)cc1` [Compound 104, 2-Ethyl-7-methoxy-N-(4-(trifluoromethoxy)benzyl)imidazo[1,2-a]pyridine-3-carboxamide]: the values for the MIC in experiment [1] and in experiment [2] were 1 to 20 µM (≈ 0.393 to 7.87 µg/mL) and > 20 µM, respectively.
Regarding `CCc1nc2cc(Cl)ccn2c1C(=O)NCc1ccc(N2CCC(=O)CC2)cc1` [Compound 269, 7-Chloro-2-ethyl-N-(4-(4-oxopiperidin-1-yl)benzyl)imidazo[1,2-a]pyridine-3-carboxamide], the MIC in experiment [1] is 1 to 20 µM (≈ 0.411 to 8.22 µg/mL); in experiment [2], < 1 µM.
In the case of `Cc1nc2cc(-c3ccccc3)ccn2c1C(=O)O` [Compound 3, 2-Methyl-7-phenylimidazo[1,2-a]pyridine-3-carboxylic acid], the MIC in experiment [1] and in experiment [2] was > 20 µM throughout.
On to `CCc1nc2cc(Cl)ccn2c1C(=O)NCc1ccc2[nH]c(CN3CCOCC3)nc2c1` [Compound 206, 7-Chloro-2-ethyl-N-((2-(morpholinomethyl)-1H-benzo[d]imidazol-5-yl)methyl) imidazo[1,2-a]pyridine-3-carboxamide], for which the MIC in experiment [1] and in experiment [2] was > 20 µM each time.
For `CCc1nc2ccccn2c1C(=O)NCc1ccc(Oc2ccc(OC(F)(F)F)cc2)cc1` [Compound 192, 2-Ethyl-N-(4-(4-(trifluoromethoxy)phenoxy)benzyl)imidazo[1,2-a]pyridine-3-carboxamide], the MIC in experiment [1] and in experiment [2] was < 1 µM each time.
Consider `CCc1nc2ccc(Cl)cn2c1C(=O)NCc1ccc(-c2cccc(C)c2)cc1` [Compound 85, 6-Chloro-2-ethyl-N-((3′-methylbiphenyl-4-yl)methyl)imidazo[1,2-a]pyridine-3-carboxamide], for which the MIC in experiment [1] and in experiment [2] was < 1 µM in each case.
For the molecule `CCc1nc2ccc(Cl)cn2c1C(=O)NCc1ccc(N2CCC(Oc3ccc(Cl)cc3)CC2)cc1` [Compound 162, 6-Chloro-N-(4-(4-(4-chlorophenoxy)piperidin-1-yl)benzyl)-2-ethylimidazo[1,2-a]pyridine-3-carboxamide], the MIC in experiment [1] and in experiment [2] was < 1 µM each time.
Consider `CCc1nc2ccc(C)cn2c1C(=O)NCc1ccc(OC(F)(F)F)cc1` [Compound 65, 2-Ethyl-6-methyl-N-(4-(trifluoromethoxy)benzyl)imidazo[1,2-a]pyridine-3-carboxamide], for which the MIC in experiment [1] and in experiment [2] was < 1 µM throughout.
Take `CCc1nc2cc(Cl)ccn2c1C(=O)NCc1ccc(-c2ccc(F)cc2)cc1` [Compound 116, 7-Chloro-2-ethyl-N-((4′-fluorobiphenyl-4-yl)methyl)imidazo[1,2-a]pyridine-3-carboxamide]: the MIC in experiment [1] and in experiment [2] was < 1 µM in each case.
In the case of `CCc1nc2cc(Cl)ccn2c1-c1nnc(CN2CCN(c3ccc(OC(F)(F)F)cc3)CC2)o1` [Compound 244, 2-(7-Chloro-2-ethylimidazo[1,2-a]pyridin-3-yl)-5-((4-(4-(trifluoromethoxy)phenyl)piperazin-1-yl)methyl)-1,3,4-oxadiazole], the MIC in experiment [1] and in experiment [2] was 1 to 20 µM (≈ 0.507 to 10.1 µg/mL) each time.
As for `CCc1nc2cc(Cl)c(Cl)cn2c1C(=O)NCc1ccc(N2CCN(Cc3ccc(F)cc3)CC2)cc1` [Compound 175, 6,7-Dichloro-2-ethyl-N-(4-(4-(4-fluorobenzyl)piperazin-1-yl)benzyl)imidazo[1,2-a]pyridine-3-carboxamide], the MIC in experiment [1] is < 1 µM; in experiment [2], > 20 µM.
`Cc1nc2ccccn2c1C(=O)NCc1ccncc1` [Compound 14, 2-Methyl-N-(pyridin-4-ylmethyl)imidazo[1,2-a]pyridine-3-carboxamide]: the MIC in experiment [1] and in experiment [2] was > 20 µM in each case.
For `CCc1nc2ccc(C(F)(F)F)cn2c1C(=O)NCc1ccc(N2CCC(Oc3ccc(OC(F)(F)F)cc3)CC2)cc1` [Compound 168, 2-Ethyl-N-(4-(4-(4-(trifluoromethoxy)phenoxy)piperidin-1-yl)benzyl)-6-(trifluoromethyl)imidazo[1,2-a]pyridine-3-carboxamide], the MIC in experiment [1] and in experiment [2] was 1 to 20 µM (≈ 0.607 to 12.1 µg/mL) throughout.
Regarding `CCc1nc2cc(N3CCN(c4ccc(F)cc4)CC3)ccn2c1C(=O)NCc1ccc(N2CCOCC2)cc1` [Compound 329, 2-Ethyl-7-(4-(4-fluorophenyl)piperazin-1-yl)-N-(4-morpholinobenzyl)imidazo[1,2-a]pyridine-3-carboxamide], the MIC in experiment [1] and in experiment [2] was > 20 µM each time.
For `CCc1nc2ccc(Cl)cn2c1C(=O)NCc1ccc(-c2ccccc2Cl)cc1` [Compound 82, 6-Chloro-N-((2′-chlorobiphenyl-4-yl)methyl)-2-ethylimidazo[1,2-a]pyridine-3-carboxamide], the MIC in experiment [1] and in experiment [2] was < 1 µM throughout.
Take `CCc1nc2cc(Cl)c(Cl)cn2c1C(=O)NCc1ccc(OC(F)(F)F)cc1` [Compound 153, 6,7-Dichloro-2-ethyl-N-(4-(trifluoromethoxy)benzyl)imidazo[1,2-a]pyridine-3-carboxamide]: the MIC is > 20 µM in experiment [1] and 1 to 20 µM (≈ 0.432 to 8.64 µg/mL) in experiment [2].
As to `CCc1nc2ccc(C)cn2c1C(=O)NCc1ccc(Oc2ccccc2)cc1` [Compound 63, 2-Ethyl-6-methyl-N-(4-phenoxybenzyl)imidazo[1,2-a]pyridine-3-carboxamide], the MIC in experiment [1] and in experiment [2] was < 1 µM in each case.
In the case of `CCc1nc2ccc(Cl)cn2c1C(=O)NCc1ccc(N2CCC(Oc3ccc(C(F)(F)F)cc3)CC2)cc1` [Compound 164, 6-Chloro-2-ethyl-N-(4-(4-(4-(trifluoromethyl)phenoxy)piperidin-1-yl)benzyl) imidazo[1,2-a]pyridine-3-carboxamide], the MIC in experiment [1] and in experiment [2] was < 1 µM in each case.
Take `CCc1nc2cc(Cl)ccn2c1C(=O)NCc1ccc(Cl)cc1` [Compound 87, 7-Chloro-N-(4-chlorobenzyl)-2-ethylimidazo[1,2-a]pyridine-3-carboxamide]: the MIC in experiment [1] and in experiment [2] was < 1 µM each time.

The values above are taken from patent US8865734B2 (priority 2010, dated 2014).
